For 18 molecules, TGI and GI50 results are on record in PubChem BioAssay (NCI).

Structures are written as SMILES. “And” between values parts separate entries of the source, which are not always exact repeats. Identical values can stand only once.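 48-hour exposure; five concentrations; linearly interpolated endpoints. Abbreviation: GI50, concentration required for 50% inhibition of growth. The concentration for full growth arrest is given as TGI.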

Common to all, as to assay: inhibition of tumour cell growth, NCI panel, 48 h
Test [1] has as its system MDA-MB-231 breast.
The subject of test [2] is NCI-H23 lung.
Test [3] relates to NCI-H460 lung.
In test [4] the test system is NCI-H522 lung.
In test [5] the test system is SF-295 CNS.
In test [6] the test system is SK-OV-3 ovarian.
In test [7] the test system is SN12C renal.
The test system of test [8] is SNB-19 CNS.
Test [9] has as its system SR leukemia.
Test [10] has as its system SW-620 colon.

With `C=C(Cl)COC(=O)Nc1cccc(Cl)c1`, the TGI in [1] was above 100 µM; in test [2], 90.2 µM; in test [3] it was above 100 µM; in test [4], 83.6 µM; in [5], 96.2 µM; in [6], above 100 µM. Moreover, the TGI in test [7], in test [8], in [9] and in test [10] was above 100 µM throughout.

As to `Cc1ncc([N+](=O)[O-])n1CCNS(=O)(=O)CCCn1ccnc1[N+](=O)[O-]`, the TGI in test [1], in [2], in [3], in test [4], in test [5] and in [6] was above 100 µM in each case. Moreover, the TGI in test [7], in [9] and in test [10] was above 100 µM each time.

For `CC1=NC2(CCCCC2)N(Cl)C(=O)C1SC#N` (configuration not stated), the TGI in test [1] came to 36.5 µM; in [2], 58.9 µM; in [4] it was 38.8 µM; in [5], 36.1 µM; in test [7], 36.5 µM; in test [8], 49.9 µM. Also, the TGI in test [9] is above 100 µM; in [10], 62.6 µM.

As to `O=C1C(Cl)=C(Oc2ccc([N+](=O)[O-])cc2)C(=O)c2c(O)ccc(O)c21`, the TGI in [1] is 66 µM; in test [2] it was above 100 µM; in [3], above 100 µM; in test [4] it was 40.2 µM; in [5], above 100 µM; in test [6] it was above 100 µM. The TGI is above 100 µM in test [7], above 100 µM in [8], 16.1 µM in test [9] and above 80.9 µM in test [10].

For the molecule `COC1/C=C\C=C(/C)C(=O)Nc2cc3nc4ccc(Br)cc4oc-3c(c2=O)CC(C)CC(OC)C(O)C(C)/C=C(\C)C1OC(N)=O` (configuration not stated), the GI50 in [1] is 0.0321 µM; in test [3], 0.00446 µM; in [4] it was 0.00141 µM; in test [9], 0.00272 µM; in test [10], 0.000996 µM. The TGI in test [1] came to 11.5 µM; in test [3], 17.9 µM; in [4], 0.142 µM; in test [5] it was 25.8 µM; in test [6], 15.3 µM; in test [7] it was 6.36 µM. In addition, the TGI was 29.4 µM in [8], 0.634 µM in test [9] and 2.75 µM in test [10].

For `COc1ccc(C2=NN(C(=O)COc3ccc(Cl)cc3)C(O)(c3cc(F)c(Cl)cc3Cl)C2)cc1OC` (configuration not stated), the GI50 in [1] was 2.41 µM; in test [2] it was 4.74 µM; in test [3], 8.87 µM; in test [6], 16.1 µM; in [7], 3.65 µM; in [8] it was 11.7 µM. Also, the figures for the GI50 in [9] and in test [10] were 1.97 µM and 0.869 µM, respectively. The TGI in test [1] came out at 6.53 µM; in [2], 17.8 µM; in [3], 24.3 µM; in [4] it was 2.37 µM; in test [5], 11.8 µM; in test [6] it was 30.6 µM. For the same molecule, the TGI came out at 13.3 µM in [7], 25.8 µM in test [8], 6.89 µM in test [9] and 2.58 µM in test [10].

Take `COC(=O)COc1ccc(/C=C2\N=C(c3ccccc3)N(c3cc(C(F)(F)F)ccc3Cl)C2=O)cc1`: the GI50 is above 100 µM in test [1]; above 100 µM in test [2]; above 100 µM in test [3]; 24.1 µM in test [4]; above 100 µM in [5]; above 100 µM in test [6]. The GI50 was above 100 µM in test [7], 83.8 µM in test [8], 19.3 µM in [9] and 62.1 µM in [10]. In addition, the TGI was above 100 µM in test [1]; above 100 µM in [2]; above 100 µM in [3]; 68.8 µM in test [4]; above 100 µM in test [5]; above 100 µM in test [6]. Further, the TGI was above 100 µM in test [7], above 100 µM in test [8], 54.9 µM in [9] and above 100 µM in [10].

As for `CC(=O)Nc1nc(SCc2ccccc2)c2ncn(C(C)=O)c2n1`, the GI50 in test [1] was 77.3 µM; in test [2], above 100 µM; in [3] it was above 100 µM; in [4], 72.6 µM; in [5], 66.1 µM; in test [6], 55.9 µM. Besides, the GI50 in test [7], in [8], in test [9] and in test [10] was above 100 µM in each case. The TGI in [1], in test [2], in [3], in test [4], in test [5] and in test [6] was above 100 µM each time. In addition, the TGI in [7], in test [8], in test [9] and in test [10] was above 100 µM in each case.

With `CC1(C)OC[C@@H]([C@@]2(CO[Si](C)(C)C(C)(C)C)CC=CC(=O)O2)O1`, the GI50 was 27.2 µM in test [1]; 26.6 µM in test [3]; 30.2 µM in test [4]; 19.6 µM in test [5]; 30.4 µM in test [6]; 19.5 µM in test [7]. Further, the values for the GI50 in test [8], in test [9] and in test [10] were 22.7 µM, 19 µM and 28.3 µM, respectively. Moreover, the TGI in test [1] is 59.9 µM; in test [3], above 100 µM; in test [4], 86.2 µM; in test [5], 42 µM; in test [6], 88.5 µM; in test [7] it was 47.6 µM. Moreover, the TGI came out at 68.9 µM in test [8], 59.9 µM in test [9] and 69.8 µM in test [10].

Regarding `Cc1ccccc1CN1CC2=C(CCN(Cc3ccccc3)C2=O)N2CCN=C12`, the TGI in test [1] is above 80 µM; in test [2], above 100 µM; in [3] it was above 100 µM; in test [4], above 100 µM; in test [5] it was above 60.4 µM; in [6], above 52.6 µM. Besides, the TGI in test [7], in test [8], in test [9] and in [10] was above 100 µM in each case.

Consider `COc1cc(Cl)cc(-c2nn(C(=O)NCCN3CCN(C)CC3)cc2-c2ccncc2)c1`, for which the GI50 was 9.7 µM in [1]; 20.1 µM in [2]; 21 µM in test [3]; 20.3 µM in test [4]; 7.73 µM in [5]; 5.44 µM in test [6]. The GI50 was 10.6 µM in test [7], 7.93 µM in test [8], 29.8 µM in test [9] and 33.1 µM in test [10]. The TGI in test [1] is 43.5 µM; in test [2], 82 µM; in test [3], 60.4 µM; in test [4], 53.6 µM; in [5] it was 46.6 µM; in test [6] it was 28.8 µM. Also, the TGI in test [7], in [8], in [9] and in test [10] was above 100 µM each time.

As to `CCCCCNC(=O)[C@@H]1CCCN2C(=O)CC[C@H](NC(=O)[C@H](Cc3ccc(OP(=O)(O)O)cc3)NC(C)=O)C(=O)N12`, the GI50 in test [1], in test [2], in test [3], in test [4], in test [5] and in test [6] was above 25 µM each time. Further, the GI50 in test [7], in [8], in [9] and in test [10] was above 25 µM each time. Also, the TGI in [1], in test [2], in test [3], in test [4], in test [5] and in test [6] was above 25 µM in each case. In addition, the TGI in test [7], in test [8], in [9] and in test [10] was above 25 µM each time.

Turning to `CCN1C(=O)N(CC)C2C1NN=c1s/c(=C3\C(=O)N(CC(C)C)c4ccccc43)c(=O)n12` (configuration not stated), the GI50 in test [1] was 2.05 µM; in test [2], 2.19 µM; in [3], 0.471 µM; in test [4], 0.4 µM; in test [5] it was 0.542 µM; in [6], 0.493 µM. Moreover, the GI50 in test [7] was 1.95 µM; in test [8], 1.89 µM; in test [9] it was 0.522 µM; in [10], 0.444 µM. Further, the TGI in test [1] is above 30.6 µM; in [2] it was above 100 µM; in test [3] it was above 100 µM; in [5], 11.4 µM; in test [6], 39.8 µM; in [7], above 100 µM. Also, the TGI in test [8] was 39.2 µM; in test [9], above 100 µM; in test [10] it was above 100 µM.

In the case of `C[C@@H]1O[C@@H](O[C@@H]2[C@@H](O)[C@H](OCCc3ccc(O)c(O)c3)O[C@H](COC(=O)/C=C/c3ccc(O)c(O)c3)[C@H]2O)[C@H](O)[C@H](O)[C@H]1O`, the GI50 in test [1] is above 100 µM; in [3] it was above 100 µM; in test [4] it was above 100 µM; in [5], above 100 µM; in [6], above 100 µM; in test [7], 68.7 µM. Further, the GI50 in test [8] is above 100 µM; in test [9], 41.3 µM; in [10] it was 18.7 µM. For the same molecule, the TGI in test [1], in test [3], in test [4], in test [5], in test [6] and in test [7] was above 100 µM in each case. Moreover, the values for the TGI in [8], in test [9] and in [10] were above 100 µM, above 100 µM and 37.9 µM, respectively.

Take `C[C@]12CC[C@H](O)CC1=CC[C@@H]1C2CC[C@]2(C)c3nn(-c4ccc(F)cc4)nc3CC12` (some centres not stated): the TGI in test [1], in [2], in [3], in test [4], in test [5] and in [6] was above 100 µM in each case. The TGI in test [7], in test [8], in [9] and in [10] was above 100 µM each time.

For the molecule `COc1ccc(/C=C2\CN(C(=O)C(Cl)Cl)C/C(=C\c3ccc(OC)c(OC)c3)C2=O)cc1OC`, the GI50 in test [1] is 0.344 µM; in test [2] it was 0.41 µM; in test [3], 0.371 µM; in test [4] it was 0.231 µM; in test [5] it was 0.243 µM; in [6], 2.46 µM. Also, in [9], the GI50 is 0.0352 µM. The TGI in test [1] was 1.39 µM; in [2], 1.79 µM; in test [3], 1.72 µM; in [4] it was 0.697 µM; in test [5] it was 0.803 µM; in test [6], above 100 µM. The same molecule registered a TGI in [9] above 100 µM.

Consider `COc1ccc(/C=C\c2cc(OC)c(OC)c(OC)c2)cc1OC(=O)C(N)CCC(=O)O` (configuration not stated), for which the GI50 in test [1] is 0.00211 µM and 0.00795 µM; in test [3] it was 0.00112 µM; in test [4], 0.00114 µM and 0.000248 µM; in test [8] it was 0.000828 µM and 0.000281 µM and < 0.0001 µM; in test [9] it was 0.000532 µM; in test [10], 0.000594 µM. For the same molecule, the TGI was 0.000785 µM and 0.0056 µM in test [2]; above 100 µM in test [6]; above 100 µM in test [7]; above 100 µM in test [8]; above 100 µM in test [10].

With `O=C(NC1CC1)c1ccc(-c2nc3ccc4[nH]ncc4c3c3c2CCCC3)cc1`, the GI50 is 2.06 µM in [1]; 3.41 µM in test [2]; 2.05 µM in test [3]; 1.21 µM in [4]; 2.24 µM in test [5]; 2.24 µM in test [7]. The GI50 in test [8] was 4.47 µM; in test [9], 0.987 µM; in test [10], 1.41 µM. The TGI in test [1] is 31.8 µM; in test [2] it was 31.3 µM; in [3], 12.2 µM; in [4] it was 9.54 µM; in test [5] it was 13.6 µM; in test [7] it was 20.7 µM. In addition, the TGI in [8] is above 50 µM; in test [9] it was 6.02 µM; in test [10], 10.3 µM.
